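Exposure lasted 48 hours, with cells grown in 96-well plates and compounds tested at five concentrations. GI50 = concentration required for 50% inhibition of growth.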 Active and inactive are the calls of the source. Cut-off read from the data, not from the text of the source: active = GI50 up to about 1.1 µM and inactive = higher.
How the values were obtained:
Assay in all cases: inhibition of tumour cell growth, NCI panel, 48 h
[1] = tested on: RPMI-8226
[2] = tested on: M14
[3] = tested on: SNB-75
[4] = tested on: SN12C
[5] = tested on: HCT-15
[6] = tested on: UACC-257
[7] = tested on: 786-0
[8] = tested on: ACHN
[9] = tested on: TK-10
[10] = tested on: SF-268
[11] = tested on: HT-29
[12] = tested on: A549
[13] = tested on: LOX IMVI
[14] = tested on: OVCAR-4
[15] = tested on: MOLT-4
[16] = tested on: HCC 2998
[17] = tested on: HOP-62

Compound | GI50 [1] | GI50 [2] | GI50 [3] | GI50 [4] | GI50 [5] [µM] | GI50 [6] | GI50 [7] | GI50 [8] | GI50 [9] | GI50 [10] | GI50 [11] | GI50 [12] | GI50 [13] | GI50 [14] | GI50 [15] | GI50 [16] | GI50 [17]
COc1cccc(NC(=O)C(C)(C)C)c1SSc1c(NC(=O)C(C)(C)C)cccc1OC | 5.78 µM (inactive) | 17.5 µM (inactive) | 40.6 µM (inactive) | 24.2 µM (inactive) | 20 | 22.7 µM (inactive) | 21.6 µM (inactive) | 33.5 µM (inactive) | > 100 µM (inactive) | 18.1 µM (inactive) | 27.3 µM (inactive) | 44.9 µM (inactive) | 15.4 µM (inactive) | 22.8 µM (inactive) | 17.7 µM (inactive) | > 69.3 µM (inactive) | > 100 µM (inactive)
CCC1(Cl)C(=O)NC(=O)N(C2CC(O)C(CO)O2)C1N=[N+]=[N-] (centres undefined) | > 100 µM (inactive) | > 100 µM (inactive) | > 100 µM (inactive) | > 100 µM (inactive) | – | > 100 µM (inactive) | > 100 µM (inactive) | > 100 µM (inactive) | > 100 µM (inactive) | > 100 µM (inactive) | > 100 µM (inactive) | > 100 µM (inactive) | > 100 µM (inactive) | > 100 µM (inactive) | > 100 µM (inactive) | > 100 µM (inactive) | > 100 µM (inactive)
CC(C)C(NCc1c2ccccc2[n+](C)c2ccccc12)C(=O)O (centres undefined) | 0.603 µM (active) | 4.49 µM (inactive) | 1.5 µM (inactive) | 5.58 µM (inactive) | 3.68 | 5.51 µM (inactive) | 4.66 µM (inactive) | 3.53 µM (inactive) | 7.91 µM (inactive) | 2.99 µM (inactive) | 2.89 µM (inactive) | 8.22 µM (inactive) | 5.42 µM (inactive) | 7.62 µM (inactive) | 1.14 µM (inactive) | 14.8 µM (inactive) | 13.8 µM (inactive)
CCOC(=O)CN(Cc1ccccc1)Cc1c(C(=O)c2ccccc2)c2ccccc2n1C(=O)c1ccccc1 | 17.9 µM (inactive) | > 100 µM (inactive) | 18.3 µM (inactive) | > 100 µM (inactive) | > 100 | – | > 100 µM (inactive) | > 100 µM (inactive) | > 100 µM (inactive) | > 100 µM (inactive) | > 100 µM (inactive) | > 100 µM (inactive) | > 100 µM (inactive) | > 100 µM (inactive) | 5.4 µM (inactive) | > 100 µM (inactive) | > 100 µM (inactive)
O=Cc1cc(O)c(O)c(O)c1-c1c(C=O)cc(O)c(O)c1O | 64.3 µM (inactive) | > 100 µM (inactive) | > 100 µM (inactive) | > 100 µM (inactive) | > 100 | > 100 µM (inactive) | > 100 µM (inactive) | > 100 µM (inactive) | > 100 µM (inactive) | > 100 µM (inactive) | > 100 µM (inactive) | > 100 µM (inactive) | > 100 µM (inactive) | > 100 µM (inactive) | > 100 µM (inactive) | > 100 µM (inactive) | > 100 µM (inactive)
Cc1ccc(C)c(N2C(=O)C(=O)C(c3nc4ccccc4o3)C(=O)C2=O)c1 | – | 36.1 µM (inactive) | 95.1 µM (inactive) | > 100 µM (inactive) | 99.5 | 32 µM (inactive) | > 100 µM (inactive) | > 100 µM (inactive) | > 100 µM (inactive) | > 100 µM (inactive) | 49.5 µM (inactive) | > 100 µM (inactive) | – | 37.6 µM (inactive) | 27.2 µM (inactive) | > 100 µM (inactive) | > 100 µM (inactive)
N#CC(N)(C(=O)C(=O)NCCCNC(=O)C(=O)C(N)(C#N)c1ccc(Cl)cc1)c1ccc(Cl)cc1 (centres undefined) | > 100 µM (inactive) | > 100 µM (inactive) | > 100 µM (inactive) | > 100 µM (inactive) | > 100 | > 100 µM (inactive) | > 100 µM (inactive) | > 100 µM (inactive) | > 100 µM (inactive) | > 100 µM (inactive) | > 100 µM (inactive) | > 100 µM (inactive) | > 100 µM (inactive) | > 100 µM (inactive) | > 100 µM (inactive) | > 100 µM (inactive) | > 100 µM (inactive)
CS/C(c1ccccc1)=[N+](\[O-])Cc1ccccc1 | 27.1 µM (inactive) | > 100 µM (inactive) | > 100 µM (inactive) | > 100 µM (inactive) | 16.7 | > 100 µM (inactive) | > 100 µM (inactive) | > 100 µM (inactive) | > 100 µM (inactive) | > 100 µM (inactive) | 50.7 µM (inactive) | > 100 µM (inactive) | 16.4 µM (inactive) | > 100 µM (inactive) | > 100 µM (inactive) | > 100 µM (inactive) | > 100 µM (inactive)
COC(=O)CCC1CCc2c(OC)ccc(O)c2C1=O (centres undefined) | > 100 µM (inactive) | > 100 µM (inactive) | 66.4 µM (inactive) | > 100 µM (inactive) | > 100 | > 100 µM (inactive) | > 100 µM (inactive) | > 100 µM (inactive) | > 100 µM (inactive) | > 100 µM (inactive) | > 100 µM (inactive) | > 100 µM (inactive) | > 100 µM (inactive) | > 100 µM (inactive) | > 100 µM (inactive) | > 100 µM (inactive) | > 100 µM (inactive)
